Results from patent US10906977B2, “Enhancing the therapeutic activity of immune checkpoint inhibitor” (Maine Medical Center Research Institute, priority 2016, dated 2021).
Each block holds one molecule with its values, some of them ahead of it.

How the values were obtained:
YAP = assay: Nuclear YAP in P-2 stimulated endothelial cells with Src or P38MAPK inhibitor; type: cell-based, human; conditions: inhibitor 10 μM; as compared to control; FIG. 8E, 8F
Description: (§1) Endothelial cells (HUVECs or HRMVECs) were incubated in serum free media with 1 mM MgCl2, 0.2 mM MnCl2 in the presence of a Src inhibitor, PP2, (10 μM) a P38MAPK inhibitor, SB202190 (10 μM) or vehicle only (DMSO) for 10 min at 37° C. Treated cells were then seeded on to immobilized P-1 and P-2 and lysates were collected at 15 min.
(§2) Whole cell and CAM tissue lysates were collected in RIPA buffer supplemented with 1× protease inhibitor and 1× phosphatase inhibitor and were run on polyacrylamide gels using denaturing conditions. Prior to loading the gels, 6× sample buffer was added to each of the lysates (final concentration 1×) and boiled for five minutes. Twenty to 50 μg of total protein were loaded into each lane. […] Gels were run at 60 volts (v) until the dye front passed through the stacking gel, and then the voltage was increased to 100V for the remainder of the separation. Precision Plus protein standards (Bio-Rad) were used to visualize migration. Protein was transferred to nitrocellulose membranes using a wet tank system and blocked for 1 h using 10% non-fat dried milk in tris-buffered saline with 0.01% Tween-20 (TBS-T). […] Membranes were washed 3 times in TBS-T for five minutes. Blots were then incubated with HRP conjugated secondary antibodies (1:15000) in 1% non-fat milk in TBS-T for 1 h. […] Western blot bands were quantified using Image J software based on pixel intensity.

[1] = test system: chick chorioallantoic membrane (CAM); assay: Chick CAM angiogenesis induced by soluble RGD collagen peptides; type: in vivo
Description: (§3) The chick chorioallantoic membrane (CAM) assays were carried out with some modifications (19). For all experiments CAMs of 10-day-old chick embryos obtained from Charles River (North Franklin, Conn.) were separated from the shell membrane. Filter discs either non-treated (inflammation assays) pretreated (angiogenesis assays) with cortisone acetate (3.0 mg/ml) containing RPMI only or FGF-2 (40 ng). CAMs were either non-treated or treated topically with Mab XL313, XL166 or a non-specific control antibody (10 μg/embryo every 24 h for three consecutive treatments). […] At the end of the incubation period the embryos were sacrificed and the CAM tissues were analyzed. Angiogenesis was quantified by counting the number of angiogenic branching blood vessels within the area of the filter disc. The angiogenic index was determined by subtracting the mean number of blood vessel branch points from untreated CAMs from each experimental condition. Eight to twelve embryos were used per condition and experiments were repeated at least three times.

β3-integrin = molecular target: T1, β3-integrin (Homo sapiens, UniProt P05106+P06756); assay: β3-integrin phosphorylation in endothelial cells attached to collagen peptides (Western blot); type: cell-based; conditions: Src inhibitor PP2 10 μM; FIG. 7E
T1 construct: endogenous in cells; host or cells: HUVEC
T1 sequence (P05106 27-788): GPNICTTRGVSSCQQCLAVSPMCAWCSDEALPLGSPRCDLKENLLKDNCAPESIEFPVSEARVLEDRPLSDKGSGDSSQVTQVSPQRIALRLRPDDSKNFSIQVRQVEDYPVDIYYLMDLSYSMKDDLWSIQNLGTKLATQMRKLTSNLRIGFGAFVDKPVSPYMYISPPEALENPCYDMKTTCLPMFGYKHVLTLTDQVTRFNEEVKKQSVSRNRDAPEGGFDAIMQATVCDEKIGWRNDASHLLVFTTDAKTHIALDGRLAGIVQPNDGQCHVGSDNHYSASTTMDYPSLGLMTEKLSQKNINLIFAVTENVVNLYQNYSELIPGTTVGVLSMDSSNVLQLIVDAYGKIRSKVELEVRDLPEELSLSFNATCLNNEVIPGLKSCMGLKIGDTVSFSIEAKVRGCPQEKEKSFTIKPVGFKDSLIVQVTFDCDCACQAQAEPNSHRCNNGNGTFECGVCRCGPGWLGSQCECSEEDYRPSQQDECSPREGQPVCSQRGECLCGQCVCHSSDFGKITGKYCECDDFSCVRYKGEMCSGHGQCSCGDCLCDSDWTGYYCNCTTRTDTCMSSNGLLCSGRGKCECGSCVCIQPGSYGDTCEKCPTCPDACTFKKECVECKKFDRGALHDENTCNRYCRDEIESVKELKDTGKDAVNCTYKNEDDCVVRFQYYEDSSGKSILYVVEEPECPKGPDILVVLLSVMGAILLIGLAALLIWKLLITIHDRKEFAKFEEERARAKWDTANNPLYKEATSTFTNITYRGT
T1 sequence (P06756 31-889 limits assumed): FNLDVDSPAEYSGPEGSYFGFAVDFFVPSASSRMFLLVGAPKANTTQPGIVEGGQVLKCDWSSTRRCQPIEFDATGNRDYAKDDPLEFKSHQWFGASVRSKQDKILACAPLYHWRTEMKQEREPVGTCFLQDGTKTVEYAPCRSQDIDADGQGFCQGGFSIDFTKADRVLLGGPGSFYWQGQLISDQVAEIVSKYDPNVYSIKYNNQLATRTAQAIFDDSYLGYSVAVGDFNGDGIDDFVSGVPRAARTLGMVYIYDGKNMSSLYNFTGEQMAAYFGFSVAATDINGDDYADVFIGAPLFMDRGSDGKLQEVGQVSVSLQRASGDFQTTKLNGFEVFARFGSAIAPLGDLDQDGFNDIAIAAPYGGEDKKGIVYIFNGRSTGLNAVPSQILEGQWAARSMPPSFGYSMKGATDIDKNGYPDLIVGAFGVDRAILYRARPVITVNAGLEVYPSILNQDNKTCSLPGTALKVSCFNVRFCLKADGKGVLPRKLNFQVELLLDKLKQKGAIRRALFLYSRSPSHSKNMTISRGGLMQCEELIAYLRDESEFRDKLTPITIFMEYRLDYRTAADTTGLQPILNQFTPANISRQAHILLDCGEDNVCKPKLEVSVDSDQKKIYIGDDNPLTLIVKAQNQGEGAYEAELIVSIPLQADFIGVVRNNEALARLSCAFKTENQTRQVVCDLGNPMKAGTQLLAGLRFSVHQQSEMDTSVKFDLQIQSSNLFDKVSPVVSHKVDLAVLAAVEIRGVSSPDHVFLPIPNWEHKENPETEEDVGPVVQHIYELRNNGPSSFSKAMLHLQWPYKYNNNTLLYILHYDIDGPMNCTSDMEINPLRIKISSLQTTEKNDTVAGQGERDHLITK
T1 sequence (P06756 891-1048 partner limits assumed): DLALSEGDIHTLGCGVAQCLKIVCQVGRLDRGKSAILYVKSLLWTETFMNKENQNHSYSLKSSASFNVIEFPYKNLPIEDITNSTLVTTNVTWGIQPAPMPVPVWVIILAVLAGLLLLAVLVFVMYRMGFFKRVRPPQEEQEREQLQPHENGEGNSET
Description: as §1, §2

P38MAPK = assay: Phosphorylated P38MAPK in HUVECs attached to collagen peptides (Western blot); type: cell-based, human; conditions: Src inhibitor PP2 10 μM; FIG. 7F
Description: as §1, §2

[2] = test system: chick chorioallantoic membrane (CAM); assay: Chick CAM inflammation assay, FGF-2 induced, no cortisone acetate; type: in vivo; conditions: FGF-2 induced; vs no treatment or control antibody; FIG. 3E
Description: The chick chorioallantoic membrane (CAM) assays were carried out with some modifications (19). For all experiments CAMs of 10-day-old chick embryos obtained from Charles River (North Franklin, Conn.) were separated from the shell membrane. Filter discs either non-treated (inflammation assays) pretreated (angiogenesis assays) with cortisone acetate (3.0 mg/ml) containing RPMI only or FGF-2 (40 ng). CAMs were either non-treated or treated topically with Mab XL313, XL166 or a non-specific control antibody (10 μg/embryo every 24 h for three consecutive treatments). For peptide induction experiments, CAMs were stimulated with 100 ng/ml of the RGD peptides (P-1, P-2, P-C) in the presence or absence of the P38MAPK inhibitor, SB202190 (10 μM). At the end of the incubation period the embryos were sacrificed and the CAM tissues were analyzed. Angiogenesis was quantified by counting the number of angiogenic branching blood vessels within the area of the filter disc. The angiogenic index was determined by subtracting the mean number of blood vessel branch points from untreated CAMs from each experimental condition. Eight to twelve embryos were used per condition and experiments were repeated at least three times.
CAMs examined for accumulation of granulation tissue were harvested, fixed in 4% PFA and paraffin embedded and sectioned (4 μm) and stained with Giemsa. CAM tissues analyzed via immunofluorescence were harvested, embedded with OCT, snap frozen and sectioned ([…]). Frozen sections were fixed in 50% methanol/50% acetone, air dried and blocked with 2.5% BSA for 1 h at 37° C. For expression of the XL313 and XL166 epitopes as well as monocyte/macrophages, FGF-2 stimulated CAM tissues were stained with Mabs XL313, XL166 (50 μg/ml) or KUL1 (1:250) and then incubated with Alexa-488 labeled secondary antibodies (1:2000 dilution). […] Using a similar strategy, sections of RGD peptide-treated CAM tissues were analyzed for phosphorylated-P38MAPK in angiogenic vessels by co-incubation of anti-phospho-P38MAPK (1:50) and anti-vWf (1:500) antibodies. […]

Fak = Fak phosphorylation in endothelial cells attached to collagen peptides; type: cell-based, human; conditions: serum free conditions
Description: Whole cell and CAM tissue lysates were collected in RIPA buffer supplemented with 1× protease inhibitor and 1× phosphatase inhibitor and were run on polyacrylamide gels using denaturing conditions. Prior to loading the gels, 6× sample buffer was added to each of the lysates (final concentration 1×) and boiled for five minutes. Twenty to 50 μg of total protein were loaded into each lane. For detection of proteins larger than 50 kD, 10% gels were used; for proteins smaller than 50 kD 15% gels were used. Gels were run at 60 volts (v) until the dye front passed through the stacking gel, and then the voltage was increased to 100V for the remainder of the separation. Precision Plus protein standards (Bio-Rad) were used to visualize migration. Protein was transferred to nitrocellulose membranes using a wet tank system and blocked for 1 h using 10% non-fat dried milk in tris-buffered saline with 0.01% Tween-20 (TBS-T). […] Western blot bands were quantified using Image J software based on pixel intensity.

[3] = test system: endothelial cells transduced with YAP specific or non-specific shRNAs; assay: Growth of shRNA transduced endothelial cells with soluble RGD peptides; type: cell-based, human; conditions: non-specific shRNA; FIG. 8G
Description: (§4) HUVECs (WT, shYAP1 or control transfected) or HRMVECs were plated at 2,000 cells per well with complete EGM-2 media containing 2.0% FBS in the absence or presence of P-1, P-2 or P-C (100 ng/ml) and allowed to grow for 24 hours. Cell growth was monitored using a BrdU or MMT assay kits according to manufacturer's instructions. All assays were completed at least three times in triplicate wells.
Raw cells were transfected with 1 μg of HuSH shRNA plasmids for collagen type I, alpha 2 using Amaxa cell line nucleofector kit V (program #T024). Constructs expressing 21-nucleotide short hairpin RNAs (shRNA) targeting human YAP (shYAP) or non-targeting control (shNT, Sigma-Aldrich, SHC002) were used. Humantargeting shYAP1 lentiviral shRNA was obtained from the Thermo Scientific RNAi consortium (TRCN0000107625). Constructs were packaged into lentivirus, pseudotyped with the vesicular stomatitis virus glycoprotein. Transduction was performed by incubating cells with lentivirus, and stably transduced cells were subsequently used for studies. All cell lines were verified by morphology and mouse and human YAP-specific PCR. […] Endothelial cells were certified mycoplasma-negative by PCR (Lonza), and primary cell cultures were used within the indicated passage numbers. Cells were transduced and selected using puromycin.

HRMVEC = assay: Endothelial cell proliferation with soluble RGD peptides; type: cell-based, human; conditions: 100 ng/ml, 24 hours; FIG. 8D
Description: as §4

HUVEC = assay: as above; type: cell-based, human; conditions: 100 ng/ml, 24 hours; FIG. 8C
Description: as §4

[4] = test system: chick chorioallantoic membrane (CAM); assay: Chick CAM inflammation induced by soluble RGD collagen peptides; type: in vivo; conditions: FIG. 5D
Description: as §3

[5] = test system: human umbilical vein endothelial cell (HUVEC); assay: Cell adhesion to immobilized collagen RGD peptides; type: cell-based; conditions: peptide immobilized 100 μg/ml; FIG. 1A
Description: RGD peptides (P-1, P-2, P-3, P-4, P-5, and P-C) were immobilized (100 μg/ml) to wells. HUVEC, HMVEC, HRMVEC, and HDF cells were suspended in adhesion buffer (RPMI containing 1 mM MgCl2, 0.2 mM MnCl2 and 0.5% BSA) and 1×10^5 cells were seeded into the wells in the presence or absence of P4C10, LM609, P1F6 or control antibodies (100 μg/ml). Cells were allowed to attach for 25 min at 37° C. Media containing non-attached cells was aspirated and attached cells were washed with PBS and stained with crystal violet. Cell adhesion was quantified by measuring the optical density of eluted dye. Adhesion assays were completed at least three times with triplicate wells.

[6] = molecular target: Denatured collagen (collagen type-I boiled 15 minutes) (UniProt P02452); assay: integrin blocking ELISA; denatured collagen wells pre-treated with anti-HU177 (0.1 µg/ml); competitor α10β1 (2.0 µg/ml)
[7] = molecular target: Denatured collagen (collagen type-I boiled 15 minutes) (UniProt P02452); assay: integrin blocking ELISA; denatured collagen wells pre-treated with anti-HU177 (0.1 µg/ml); competitor α2β1 (2.0 µg/ml)
[8] = molecular target: Denatured collagen (collagen type-I boiled 15 minutes) (UniProt P02452); assay: cell-based or functional assay
[9] = molecular target: integrin αvβ3 on cells (HUVEC endothelial cells, M21 melanoma cells, human T-cells) (human, UniProt P06756 31-1048; P05106 27-788); assay: cell-based or functional assay
Sequence of integrin αvβ3 on cells (HUVEC endothelial cells, M21 melanoma cells, human T-cells) (P06756 31-1048, chain 1 of 2): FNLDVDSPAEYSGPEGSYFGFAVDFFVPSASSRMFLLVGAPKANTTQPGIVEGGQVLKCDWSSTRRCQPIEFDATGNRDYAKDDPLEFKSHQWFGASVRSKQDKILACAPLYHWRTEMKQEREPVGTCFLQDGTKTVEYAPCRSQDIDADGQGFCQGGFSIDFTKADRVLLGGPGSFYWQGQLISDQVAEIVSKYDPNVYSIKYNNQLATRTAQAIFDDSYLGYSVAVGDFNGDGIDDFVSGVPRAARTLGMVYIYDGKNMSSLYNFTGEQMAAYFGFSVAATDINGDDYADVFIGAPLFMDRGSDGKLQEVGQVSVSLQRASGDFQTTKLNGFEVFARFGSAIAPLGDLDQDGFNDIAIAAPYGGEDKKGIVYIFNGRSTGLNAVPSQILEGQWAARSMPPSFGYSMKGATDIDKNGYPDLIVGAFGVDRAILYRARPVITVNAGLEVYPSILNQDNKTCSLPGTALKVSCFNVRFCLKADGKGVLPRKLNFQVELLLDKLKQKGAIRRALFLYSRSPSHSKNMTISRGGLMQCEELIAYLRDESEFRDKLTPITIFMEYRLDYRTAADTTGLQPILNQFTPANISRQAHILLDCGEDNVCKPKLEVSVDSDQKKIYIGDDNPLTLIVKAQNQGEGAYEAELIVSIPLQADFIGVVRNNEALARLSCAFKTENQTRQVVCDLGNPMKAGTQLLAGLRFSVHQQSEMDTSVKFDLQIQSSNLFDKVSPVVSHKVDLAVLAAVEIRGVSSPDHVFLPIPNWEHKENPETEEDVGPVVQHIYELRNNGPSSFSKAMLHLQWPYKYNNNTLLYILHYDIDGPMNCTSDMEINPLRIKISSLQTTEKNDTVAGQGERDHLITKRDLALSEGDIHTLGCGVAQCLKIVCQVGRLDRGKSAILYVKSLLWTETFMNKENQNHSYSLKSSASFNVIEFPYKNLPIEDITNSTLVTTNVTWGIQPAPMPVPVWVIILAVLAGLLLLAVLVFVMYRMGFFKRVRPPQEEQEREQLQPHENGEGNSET
Sequence of integrin αvβ3 on cells (HUVEC endothelial cells, M21 melanoma cells, human T-cells) (P05106 27-788, chain 2 of 2): as the sequence (P05106 27-788) above

Molecule: Oc1ccc(-c2nc(-c3ccncc3)c(-c3ccc(F)cc3)[nH]2)cc1 [P38MAPK inhibitor, SB202190, reference compound]
reduction of nuclear YAP accumulation following P-2 stimulation (YAP): approximately 50% | effect on P-2 induced angiogenesis in vivo ([1]; SB202190 10 μM, FIG. 6F): reduced

β3 phosphorylation following binding to collagen peptide P-2 (β3-integrin): reduced
Molecule: CC(C)(C)n1nc(-c2ccc(Cl)cc2)c2c(N)ncnc21 [Src inhibitor, PP2, reference compound]
reduction of nuclear YAP accumulation following P-2 stimulation (YAP): approximately 50% | P38MAPK phosphorylation following binding to collagen peptide P-2 (P38MAPK): reduced

Molecule: CC(=O)OCC(=O)[C@@]1(O)CC[C@H]2[C@@H]3CCC4=CC(=O)CC[C@]4(C)[C@H]3C(=O)C[C@@]21C [cortisone acetate]
reduction of the percentage of CAMs exhibiting thickening / inflammation [2]: greater than 80%

Molecule: CKGDRGDAPGC [Mab P-1, RGDAPG containing collagen type-I peptide (…) with flanking cysteines]
Fak phosphorylation following ligation of peptide (Fak): Minimal Fak phosphorylation | induction of CAM angiogenesis as compared to no treatment ([1]; soluble peptide, FIG. 5C): not | growth of control transduced endothelial cells with soluble peptide [3]: not | HRMVEC growth with soluble peptide (HRMVEC): minimal effect | HUVEC growth with soluble peptide (HUVEC): minimal effect | CAM inflammation following stimulation with peptide [4]: Minimal evidence of tissue inflammation

Molecule: CRGPRGDQGPC [Mab P-5]
HUVEC adhesion to immobilized peptide [5]: highest levels of adhesion

percent inhibition of α10β1 binding to denatured collagen [6]: 60% | percent inhibition of α2β1 binding to denatured collagen [7]: 30% | basal migration of SKOV-3 cells and fibroblasts on denatured collagen [8]: 35 to 38% | decrease in SKOV-3 cell adhesion to denatured collagen [8]: 40% | decrease in fibroblast adhesion to denatured collagen [8]: 50%
Molecule: Mab HU177 (antibody)

Src phosphorylation in endothelial cells attached to the peptide (Western blot) [9]: ~2 fold | β3-integrin phosphorylation in endothelial cells attached to the peptide (Western blot) [9]: > 3 fold
Molecule: CQGPRGDKGEC [Synthetic collagen RGD containing peptide P-2 (CQGPRGDKGEC)]
